Entries after “also recorded” stand apart in the source; their conditions may differ.
Tests used:
[1] = target: T1, inositol monophosphatase (IMPase) (Bos taurus, UniProt P20456); assay: Inhibition of inositol monophosphatase (IMPase) enzyme activity, liberated phosphate by molybdate coloration; format: biochemical, animal; settings: 4 mM 2-glycerolphosphate, 5 μg/ml IMPase, 50 mM Tris-HCl pH 7.5, 2 mM magnesium chloride, 0.1 mM EGTA, 30 minutes; read-out: IC50 (molar amount of inhibitor required to inhibit the enzyme activity by 50%)
T1 sequence (P20456 1-277): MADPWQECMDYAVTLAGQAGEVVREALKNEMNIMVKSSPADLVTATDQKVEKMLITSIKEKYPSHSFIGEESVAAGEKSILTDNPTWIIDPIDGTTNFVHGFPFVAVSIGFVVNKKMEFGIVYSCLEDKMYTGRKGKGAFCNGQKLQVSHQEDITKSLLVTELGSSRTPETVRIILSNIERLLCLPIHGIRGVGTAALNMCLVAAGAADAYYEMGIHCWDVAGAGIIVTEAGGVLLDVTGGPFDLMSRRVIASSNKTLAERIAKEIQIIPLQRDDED
From the text: For determining the activity of the compounds of formula I, IMPase with a purity higher than 90% as judged by SDS-PAGE (sodium dodecyl sulphate polyacrylamide gel electrophoresis) is purified as described in P. D. Pelton and A. J. Ganzhorn, Journal Biolog. Chem., 267, 1992, pp. 5916-5920. The enzyme can be purified from animal brain or from recombinant E. coli strains expressing animal IMPase. Although crude enzyme preparations can also be used, it is preferable to use purified enzyme. The purified enzyme routinely has a specific activity of 25 μmol of Pi/min/mg of protein as determined in a standard assay (P. V. Attwood et al., Biochem. Jour., 1988, 253, pp. 387-394) with 4 mM 2-glycerolphosphate as substrate.
The enzyme activity may be determined according to A. J. Ganzhorn and M. C. Chanal, Biochem., 1990, 29; the reaction mixture contains 50 mM Tris-HCl, pH 7.5, 2 mM magnesium chloride and 0.1 mM EGTA. Then, 5 μg/ml of enzyme IMPase and 4 mM of 2-glycerolphosphate substrate are added to the reaction mixture; alternatively, it is also possible to add the substrate directly into the reaction mixture, before adding the enzyme.
The reaction is considered terminated after 30 minutes from the addition of the substrate or the enzyme (depending on which one is added later); the liberated phosphate is determined by molybdate coloration (P. V. Attwood et al., Biochem. Jour., 1988, 253, pp. 387-394) at 350 nm with a Shimadzu spectrophotometer UV 2100.
The enzyme reaction is performed either in the absence or in the presence of various concentrations of the compounds of formula I, to determine the molar amount of inhibitor required to inhibit the enzyme activity by 50% (IC50).

[2] = cited from earlier work
bipolar disorder / mania = settings: cited from earlier work
inositol monophosphatase = settings: cited from earlier work

O=C(O)c1cc(O)c(O)c(=O)c(O)c1 [puberulic acid, 3,4,6-trihydroxy-5-oxo-1,3,6-cycloheptatriene-1-carboxylic acid]
IC50 [1]: ~40 µM

O=C1OC(=O)c2c1cc(O)c(O)c(O)c2=O [puberulonic acid, 3,4,6-trihydroxy-5-oxo-1,3,6-cycloheptatriene-1,7-dicarboxylic acid anhydride]
IC50 [1]: ~4 µM

lithium
IC50 [1]: ~1250 µM
structural lesions in kidney ([2]; after chronic lithium treatment, especially in patients who have experienced lithium toxicity): interstitial fibrosis, tubular atrophy and glomerular sclerosis
adverse effects common to lithium therapy ([2]; lithium therapy): tremor, weight gain, diarrhea and skin rash; also recorded: transient leukocytosis; also recorded: can cause patients with a borderline thyroid reserve to become clinically hypothyroid; also recorded: can decompensate cardiac status due to shifts in fluids and electrolytes
occurrence of polyuria-polydipsia syndrome ([2]; lithium treatment): up to 60 % of treated patients
time it takes to exert anti-manic effect (bipolar disorder / mania; acute bipolar disorder): 7 to 10 days
anti-manic and anti-depressive therapeutic effect (bipolar disorder / mania; preferably employed as lithium carbonate): alleviating manic symptoms, normalizing the mood of manic patients
inhibition of inositol monophosphatase activity (inositol monophosphatase): inhibits the activity of said enzyme

Source: US5990160A, “Use of tropolone derivatives as inhibitors of the enzyme inositol monophosphatase” (Gruppo Lepetit, SpA, priority 1995, dated 1999)
